Experimental findings from ChEMBL document CHEMBL4265967, “Design, synthesis, and evaluation of carboxyl-modified oseltamivir derivatives with improved lipophilicity as neuraminidase inhibitors” (Bioorg Med Chem Lett, 2018) are described below.

Data set [1] has as its target Neuraminidase (Influenza A virus, UniProt B4URF0). Set-up: species or system A/Anhui/2005(H5N1).
Data set [2] deals with Neuraminidase (Influenza A virus) (UniProt B4URF0). Conditions: A/Anhui/2005(H5N1), at 1 µM.
The target is the same in data set [3]. The settings on record: A/Anhui/2005(H5N1), at 10 µM.
Data set [4] is described as follows: in vitro. Conditions: human, liver microsomes. A general note: Liver microsomes are a subcellular fraction often used to study metabolism.
Data set [5] can be described thus: Octanol-phosphate buffered saline partition coefficient, log D of compound at pH 6.8 at 1 mg after 24 hrs by HPLC analysis. Type of data set: physicochemical.
The nature of data set [6]: Octanol-phosphate buffered saline partition coefficient, log D of compound at pH 7 at 1 mg after 24 hrs by HPLC analysis. Type of data set: physicochemical.
Data set [7] in a line: in vitro. The settings on record: human, liver microsomes. The source holds these as a separate data set.
Data set [8] in a line: in vitro. The settings on record: human, liver microsomes. This is another data set of the same source.
A short description of data set [9]: Octanol-phosphate buffered saline partition coefficient, log D of compound at pH 7.6 at 1 mg after 24 hrs by HPLC analysis. Type of data set: physicochemical.
Data set [10] is described as follows: Octanol-phosphate buffered saline partition coefficient, log D of compound at pH 7.4 at 1 mg after 24 hrs by HPLC analysis. The class given is physicochemical.
A short description of data set [11]: in vitro. The settings on record: human, liver microsomes. This is another data set of the same source.
A short description of data set [12]: in vitro. Conditions: human, liver microsomes. The source holds these as a separate data set.
Data set [13] in a line: in vitro. The settings on record: human, liver microsomes. The source holds these as a separate data set.
The nature of data set [14]: in vitro. The settings on record: human, liver microsomes. This is another data set of the same source.
Data set [15] in a line: in vitro. The settings on record: human, liver microsomes. This is another data set of the same source.

Neuraminidase (Influenza A virus), sequence (B4URF0 as listed by the source): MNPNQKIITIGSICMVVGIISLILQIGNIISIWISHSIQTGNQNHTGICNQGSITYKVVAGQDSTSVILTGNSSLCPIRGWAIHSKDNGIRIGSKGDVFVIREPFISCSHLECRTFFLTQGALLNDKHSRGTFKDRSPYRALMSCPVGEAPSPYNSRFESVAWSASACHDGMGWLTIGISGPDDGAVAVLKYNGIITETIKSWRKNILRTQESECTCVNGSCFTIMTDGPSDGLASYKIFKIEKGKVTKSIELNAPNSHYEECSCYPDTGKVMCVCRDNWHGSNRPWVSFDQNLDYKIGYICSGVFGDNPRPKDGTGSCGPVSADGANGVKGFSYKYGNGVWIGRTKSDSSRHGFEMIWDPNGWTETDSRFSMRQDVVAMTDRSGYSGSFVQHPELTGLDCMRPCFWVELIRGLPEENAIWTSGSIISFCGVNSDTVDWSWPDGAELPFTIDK
Neuraminidase, sequence (B4URF0 whole entry): as the sequence (B4URF0 as listed by the source) above

In general, IC50 refers to the concentration that gives 50% inhibition. A lower IC50 goes with higher potency. One may read the inhibition as the drop in the measured response relative to a control, in per cent. Read a low inhibition as a response near the control. As for `CCC(CC)O[C@@H]1C=C(C(=O)N[C@H](CC(C)C)C(=O)O)C[C@H](N)[C@H]1NC(C)=O`, half-maximal inhibition in data set [1] (IC50) was put at 6.55 µM. Also, the results for the inhibition in [2] and in [3] were 38.9% and 84.4%, respectively.
Regarding `CCCC[C@@H](NC(=O)C1=C[C@@H](OC(CC)CC)[C@H](NC(C)=O)[C@@H](N)C1)C(=O)O`, in data set [1], the IC50 came to 30.7 µM. In data set [3], this compound displayed an inhibition of 85.5%.
On to `CCC(CC)O[C@@H]1C=C(C(=O)N[C@@H](C(=O)O)c2ccccc2)C[C@H](N)[C@H]1NC(C)=O`, for which the inhibition in [3] is 8.3%.
As to `CCC(CC)O[C@@H]1C=C(C(=O)NC2CC2)C[C@H](N)[C@H]1NC(C)=O`, the inhibition was 5% in [2] and 55.3% in data set [3].
`CCC(CC)O[C@@H]1C=C(C(=O)N[C@H](C)C(=O)O)C[C@H](N)[C@H]1NC(C)=O` displayed an IC50 in data set [1] of 24.4 µM. In addition, the inhibition in data set [2] stood at 27.8%; in [3], 81.1%.
With `CCC(CC)O[C@@H]1C=C(C(=O)N[C@@H](CC(=O)OC)c2ccccc2)C[C@H](N)[C@H]1NC(C)=O`, the inhibition is 26.5% in [2] and 56.7% in data set [3].
For the compound `CCC(C)C[C@@H](NC(=O)C1=C[C@@H](OC(CC)CC)[C@H](NC(C)=O)[C@@H](N)C1)C(=O)OC` (some centres not stated), the figures for the inhibition in data set [2] and in data set [3] were 23.6% and 50.5%, respectively.
For `CCC(CC)O[C@@H]1C=C(C(=O)N[C@H](Cc2ccccc2)C(=O)OC)C[C@H](N)[C@H]1NC(C)=O` the same measures were 24.9% and 63.2%.
For orientation: CLint scaled means the capacity of the preparation to metabolise the compound, expressed as a volume cleared per time. Lower therefore signals greater metabolic stability. Usually microsomal CLint stands for the capacity of the preparation to metabolise the compound, expressed as a volume cleared per time. Read a low microsomal CLint as slow turnover. Broadly, the logD is the decadic logarithm of the distribution of all forms, ionised or not, between an organic phase and buffer at a given pH. A higher logD goes with a more lipophilic compound. As usually defined, the half-life is the time in which the quantity being followed falls by half. For the compound `CCC(CC)O[C@@H]1C=C(C(=O)N[C@@H](C(=O)O)C(C)(C)C)C[C@H](N)[C@H]1NC(C)=O`, the CLint scaled at 1 µM in [4] was less than 8.6 mL/min/kg. Further, the microsomal CLint at 1 µM in data set [4] is less than 9.6 µL/min/mg. The same compound had a half-maximal inhibitory concentration (IC50) in [1] of 1.3 µM. Besides, the inhibition stood at 58.3% in data set [2] and 91% in data set [3]. In addition, the logD at 24 h was -0.0458 in data set [5], -0.167 in data set [6], -0.209 in [9] and -0.116 in data set [10]. Also, the fraction remaining at 20 min, 1 µM in data set [7] came to 106%. For the same compound, the share remaining at 5 min, 1 µM in [8] amounted to 111%. In data set [11], the half-life at 1 µM was more than 145 min. The amount remaining at 1 h, 1 µM was 92.9% in data set [12] and 84.1% in data set [15]. In addition, in [13], the amount remaining at 0.5 h, 1 µM is 95.5%. In addition, in data set [14], the fraction remaining at 10 min, 1 µM was 87.3%.
Compound `CCC(CC)O[C@@H]1C=C(C(=O)NCc2ccc(Cl)c(Cl)c2)C[C@H](N)[C@H]1NC(C)=O` displayed an inhibition in data set [3] of 21.4%.
On to `CCC(CC)O[C@@H]1C=C(C(=O)NCCCc2ccccc2)C[C@H](N)[C@H]1NC(C)=O`, for which the inhibition in data set [2] was determined as 13.5%; in data set [3] it was 19.3%.
In data set [1], `CCC(CC)O[C@@H]1C=C(C(=O)N[C@@H](C(=O)O)C(C)C)C[C@H](N)[C@H]1NC(C)=O` displayed an IC50 of 4.18 µM. Also, the inhibition turned out to be 57.6% in [2] and 91.4% in data set [3].
As for `CCC(CC)O[C@@H]1C=C(C(=O)N[C@H](Cc2ccccc2)C(=O)O)C[C@H](N)[C@H]1NC(C)=O`, in data set [1], the 50% inhibitory concentration (IC50) worked out at 21.9 µM. Further, the inhibition worked out at 21.1% in [2] and 80.4% in data set [3].
With `CCC(CC)O[C@@H]1C=C(C(=O)NCCCCc2ccccc2)C[C@H](N)[C@H]1NC(C)=O`, the inhibition in data set [2] came out at 24.7%; in [3] it was 29.6%.
`CCC(CC)O[C@@H]1C=C(C(=O)N[C@H](CC(C)C)C(=O)OC)C[C@H](N)[C@H]1NC(C)=O`: the results for the inhibition in data set [2] and in data set [3] were 13.1% and 41.7%, respectively.
For `O=C(O)Cc1ccccc1Nc1c(Cl)cccc1Cl` [DICLOFENAC], in [4], the CLint scaled at 1 µM came to 108 mL/min/kg and the intrinsic clearance (microsomal CLint) at 1 µM was 120 µL/min/mg. The compound also showed a half-life at 1 µM in [11] of 11.6 min.
Regarding `C[C@]12CC[C@H]3[C@@H](CCC4=CC(=O)CC[C@@]43C)[C@@H]1CC[C@@H]2O` [TESTOSTERONE], the fraction remaining at 20 min, 1 µM in data set [7] stood at 37.8%. In data set [8], the share remaining at 5 min, 1 µM was determined as 64.8%. The amount remaining at 1 h, 1 µM in data set [12] came out at 99.3%; in data set [15], 5.2%. For the same compound, the share remaining at 0.5 h, 1 µM in [13] is 21.5%. Also, in data set [14], the fraction remaining at 10 min, 1 µM came to 58.9%.
On to `CCC(CC)O[C@@H]1C=C(C(=O)N[C@@H](C(=O)O)C2CC2)C[C@H](N)[C@H]1NC(C)=O`, for which inhibition in data set [1] was half-maximal at 46.4 µM (IC50). This compound registered an inhibition in [3] of 85.7%.
